Active and inactive are the calls of the source. The calls are words filed in the database; no cut-off is given here.

The target in data set [1] is T1, Peroxisome proliferator-activated receptor gamma (Homo sapiens, UniProt P37231).
T1 sequence (P37231 whole entry): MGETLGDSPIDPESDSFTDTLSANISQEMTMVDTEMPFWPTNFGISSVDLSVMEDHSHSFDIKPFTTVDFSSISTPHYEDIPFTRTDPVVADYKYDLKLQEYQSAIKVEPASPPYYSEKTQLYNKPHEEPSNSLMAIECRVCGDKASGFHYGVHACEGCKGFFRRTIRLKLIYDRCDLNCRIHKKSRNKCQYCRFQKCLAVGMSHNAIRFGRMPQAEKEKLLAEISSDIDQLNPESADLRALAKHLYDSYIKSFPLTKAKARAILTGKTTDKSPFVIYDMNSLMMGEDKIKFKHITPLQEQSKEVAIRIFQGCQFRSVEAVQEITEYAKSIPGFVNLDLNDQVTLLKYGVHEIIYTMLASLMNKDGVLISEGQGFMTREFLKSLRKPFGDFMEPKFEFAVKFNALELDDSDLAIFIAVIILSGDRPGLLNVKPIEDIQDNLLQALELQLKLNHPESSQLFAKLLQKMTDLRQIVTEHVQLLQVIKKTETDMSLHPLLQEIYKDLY
Description: (§1) Agonist activity at PPARgamma assessed as transcriptional activation

The target in data set [2] is T2, Peroxisome proliferator-activated receptor delta (Homo sapiens) (UniProt Q03181).
T2 sequence (whole entry): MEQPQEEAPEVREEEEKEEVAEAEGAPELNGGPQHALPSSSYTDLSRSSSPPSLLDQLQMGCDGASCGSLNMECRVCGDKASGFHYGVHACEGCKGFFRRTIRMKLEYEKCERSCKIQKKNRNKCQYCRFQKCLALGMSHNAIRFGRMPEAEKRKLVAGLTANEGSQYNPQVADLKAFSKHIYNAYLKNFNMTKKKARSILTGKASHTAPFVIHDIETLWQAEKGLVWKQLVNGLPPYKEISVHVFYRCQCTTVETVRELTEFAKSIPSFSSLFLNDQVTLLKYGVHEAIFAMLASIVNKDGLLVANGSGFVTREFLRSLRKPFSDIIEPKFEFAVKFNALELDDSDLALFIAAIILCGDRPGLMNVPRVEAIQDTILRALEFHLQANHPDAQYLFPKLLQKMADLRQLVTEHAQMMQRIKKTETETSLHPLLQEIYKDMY
As to the kind of experiment: Agonist activity at PPARdelta by transactivation assay. In kind it is functional.

The target of data set [3] is T1, Peroxisome proliferator-activated receptor gamma. Kind of data set: Binding affinity to PPARgamma.
Data set [4] addresses T3, Peroxisome proliferator-activated receptor alpha (Homo sapiens) (UniProt Q07869).
T3 sequence (whole entry): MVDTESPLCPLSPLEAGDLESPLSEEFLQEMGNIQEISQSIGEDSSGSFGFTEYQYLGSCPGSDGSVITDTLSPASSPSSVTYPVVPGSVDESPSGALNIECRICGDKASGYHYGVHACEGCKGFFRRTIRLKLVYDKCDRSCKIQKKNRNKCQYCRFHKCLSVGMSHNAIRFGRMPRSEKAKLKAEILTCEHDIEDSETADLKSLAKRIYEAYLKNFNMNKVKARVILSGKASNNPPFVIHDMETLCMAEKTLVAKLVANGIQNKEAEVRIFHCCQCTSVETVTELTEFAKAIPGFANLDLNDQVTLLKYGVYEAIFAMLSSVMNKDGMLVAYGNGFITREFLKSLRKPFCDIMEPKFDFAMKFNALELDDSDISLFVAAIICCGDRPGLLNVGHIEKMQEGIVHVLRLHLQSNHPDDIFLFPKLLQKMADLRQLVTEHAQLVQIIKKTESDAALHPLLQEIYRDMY
As to the kind of experiment: Agonist activity at PPARalpha by transactivation assay. The format is functional.

Data set [5] concerns Mus musculus. As to the kind of experiment: Toxicity in db/db mouse assessed as heart weight administered at 0.01% in diet (Rvb=102+/-4.8 mg). The following applies: in vivo, po. In kind it is organism-based.
Data set [6] deals with Mus musculus. Kind of data set: Toxicity in db/db mouse assessed as heart weight administered at 0.1% in diet (Rvb=102+/-4.8 mg). The following applies: in vivo, po. In kind it is organism-based.
The species entered for data set [7] is Mus musculus. Kind of data set: Antihyperglycemic activity in KK/Ta mouse assessed as reduction in food intake at 0.01% in diet after 7 days relative to control. In kind it is functional. Set-up: scale not given: the % may be the effect or the level left.
The species entered for data set [8] is Mus musculus. Kind of data set: Antihyperglycemic activity in KK/Ta mouse assessed as reduction in body weight at 0.01% in diet after 7 days relative to control. The format is functional. Set-up: scale not given: the % may be the effect or the level left.
For data set [9], the species on record is Mus musculus. As to the kind of experiment: Antihyperglycemic activity in KK/Ta mouse assessed as reduction in plasma glucose level at 0.01% in diet relative to control. The format is functional. Set-up: scale not given: the % may be the effect or the level left.
The target in data set [10] is T1, Peroxisome proliferator-activated receptor gamma. The source holds these as a separate data set.
Description: as §1
The target is the same in data set [11]. As to the kind of experiment: Inhibition of PPARgamma assessed as transcriptional activity.

For `COC1Oc2cc(O)c3c(c2C(=O)N1C(=O)NCc1ccccc1[N+](=O)[O-])OC1=CC(O)=C(C(C)=O)C(=O)[C@]13C` (stereo partly drawn), a half-maximal effect in [1] (EC50) was put at 1600 nM. As to `COC1Oc2cc(O)c3c(c2C(=O)N1C(=O)NCc1ccc([N+](=O)[O-])cc1)OC1=CC(O)=C(C(C)=O)C(=O)[C@]13C` (stereo partly drawn), the midpoint of the response in [1], the EC50, lay at 6000 nM. Turning to `COC1Oc2cc(O)c3c(c2C(=O)N1C(=O)NCc1cccc2ccccc12)OC1=CC(O)=C(C(C)=O)C(=O)[C@]13C` (stereo partly drawn), the outcome in data set [2] and in data set [4] was inactive. Moreover, the inhibition constant (Ki) in data set [3] came to 82 nM. For the same molecule, the Activity in the data set on Mus musculus [5] is 102.8 mg; in the data set with Mus musculus [6], 103.8 mg. In data set [1], this molecule came in with an EC50 of 180 nM. The molecule `COC1Oc2cc(O)c3c(c2C(=O)N1C(=O)NCc1cc2ccccc2s1)OC1=CC(O)=C(C(C)=O)C(=O)[C@]13C` (stereo partly drawn) displayed a half-maximal effective concentration (EC50) in data set [1] of 3800 nM. Turning to `COC1Oc2cc(O)c3c(c2C(=O)N1C(=O)NCc1cccs1)OC1=CC(O)=C(C(C)=O)C(=O)[C@]13C` (stereo partly drawn), the half-maximal effective concentration (EC50) in data set [1] is 1200 nM. Turning to `COC1Oc2cc(O)c3c(c2C(=O)N1C(=O)NCc1ccsc1)OC1=CC(O)=C(C(C)=O)C(=O)[C@]13C` (stereo partly drawn), the midpoint of the response in data set [1], the EC50, lay at 4400 nM. `COC1Oc2cc(O)c3c(c2C(=O)N1C(=O)NCc1ccc(Cl)cc1)OC1=CC(O)=C(C(C)=O)C(=O)[C@]13C` (stereo partly drawn) came in with a half-maximal effective concentration (EC50) in data set [1] of 770 nM. In [1], `COC1Oc2cc(O)c3c(c2C(=O)N1C(=O)NCc1cccnc1)OC1=CC(O)=C(C(C)=O)C(=O)[C@]13C` (stereo partly drawn) displayed a 50% effective concentration (EC50) of 11000 nM. Regarding `COC1Oc2cc(O)c3c(c2C(=O)N1C(=O)NCc1ccoc1)OC1=CC(O)=C(C(C)=O)C(=O)[C@]13C` (stereo partly drawn), in data set [1], the EC50 was 3200 nM. `COC1Oc2cc(O)c3c(c2C(=O)N1C(=O)NCc1cccc(Cl)c1)OC1=CC(O)=C(C(C)=O)C(=O)[C@]13C` (stereo partly drawn) displayed an EC50 in data set [1] of 6700 nM.

In the case of `CC(=O)C1=C(O)C=C2Oc3c4c(cc(O)c3[C@]2(C)C1=O)OC(C)(C)N(Cc1ccccc1)C4=O`, the Activity is recorded as 74% in the data set listed under Mus musculus [7], 103% in the data set listed under Mus musculus [8] and 55% in the data set listed under Mus musculus [9]. In turn, `COc1cccc(CNC(=O)N2C(=O)c3c(cc(O)c4c3OC3=CC(O)=C(C(C)=O)C(=O)[C@]34C)OC2OC)c1` (stereo partly drawn) came in with an EC50 in [1] of 3800 nM. Molecule `COC1Oc2cc(O)c3c(c2C(=O)N1C(=O)NCc1ccccc1Cl)OC1=CC(O)=C(C(C)=O)C(=O)[C@]13C` (stereo partly drawn) displayed an EC50 in data set [1] of 280 nM. Turning to `COC1Oc2cc(O)c3c(c2C(=O)N1C(=O)NCc1cccc([N+](=O)[O-])c1)OC1=CC(O)=C(C(C)=O)C(=O)[C@]13C` (stereo partly drawn), the EC50 in data set [1] was 2400 nM. In data set [1], `COC1Oc2cc(O)c3c(c2C(=O)N1C(=O)NCc1cc2ccccc2o1)OC1=CC(O)=C(C(C)=O)C(=O)[C@]13C` (stereo partly drawn) registered an EC50 of 2300 nM. Regarding `COc1cc(O)c2c(c1C(=O)NCc1ccccc1)OC1=CC(O)=C(C(C)=O)C(=O)[C@]12C`, the results for the Activity in the data set listed under Mus musculus [7], in the data set filed under Mus musculus [8] and in the data set listed under Mus musculus [9] were 100%, 101% and 69%, respectively. The molecule further gave an EC50 in data set [1] of 220 nM. In turn, `COc1ccc(CNC(=O)N2C(=O)c3c(cc(O)c4c3OC3=CC(O)=C(C(C)=O)C(=O)[C@]34C)OC2OC)cc1` (stereo partly drawn) showed an EC50 in data set [1] of 1700 nM.

As to `COC1Oc2cc(O)c3c(c2C(=O)N1C(=O)NCc1ccccn1)OC1=CC(O)=C(C(C)=O)C(=O)[C@]13C` (stereo partly drawn), the 50% effective concentration (EC50) result in data set [10] is “Not Active”. Turning to `CC(=O)C1=C(O)C=C2Oc3c4c(cc(O)c3[C@]2(C)C1=O)OC(C)(C)NC4=O`, the Activity in the data set listed under Mus musculus [7] was found to be 78%; in the data set listed under Mus musculus [8], 102%; in the data set filed under Mus musculus [9], 56%. The molecule `COC1Oc2cc(O)c3c(c2C(=O)N1C(=O)NCc1ccco1)OC1=CC(O)=C(C(C)=O)C(=O)[C@]13C` (stereo partly drawn) registered an EC50 in [1] of 560 nM. In addition, in data set [11], the IC50 is 13000 nM.

The values are drawn from ChEMBL document CHEMBL1156945, “Discovery of a novel selective PPARgamma modulator from (-)-Cercosporamide derivatives” (Bioorg Med Chem Lett, 2010).
